ChEMBL document CHEMBL1201862, “PubChem BioAssay data set” (2004)
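Dose response: 5 concentrations. Exposure: 48 h. Format: 96-well plates. Endpoint: linear interpolation; highest concentration if not reached. Here, GI50 denotes the concentration required for 50% inhibition of growth.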 Active and inactive are the calls of the source. No stated cut-off is given here; in the data, active = GI50 up to about 1.1 µM and inactive = higher.

Experiments:
Assay in all cases: NCI tumour cell line growth inhibition, 48 h
HCT-116 = tested on: HCT-116
SF-268 = tested on: SF-268
TK-10 = tested on: TK-10
ACHN = tested on: ACHN
K562 = tested on: K562
LOX IMVI = tested on: LOX IMVI
U-251 = tested on: U-251
SNB-19 = tested on: SNB-19
Malme-3M = tested on: Malme-3M
SF-295 = tested on: SF-295
MOLT-4 = tested on: MOLT-4
SR = tested on: SR
CCRF-CEM = tested on: CCRF-CEM
OVCAR-5 = tested on: OVCAR-5
OVCAR-4 = tested on: OVCAR-4
SK-MEL-2 = tested on: SK-MEL-2
CAKI-1 = tested on: CAKI-1
HOP-92 = tested on: HOP-92

Measured: GI50

CC(C)CCS(=O)(=O)OCCCCOS(=O)(=O)CCC(C)C
inactive: HCT-116 > 100 µM | SF-268 > 100 µM | TK-10 > 100 µM | ACHN > 100 µM | K562 > 100 µM | LOX IMVI > 100 µM | U-251 > 100 µM | SNB-19 > 100 µM | Malme-3M > 100 µM | SF-295 > 100 µM | MOLT-4 > 100 µM | SR > 100 µM | CCRF-CEM > 100 µM

CCOC(=O)c1cnc2sc3ccc4ccccc4c3n2c1=O
inactive: OVCAR-5 > 100 µM | HCT-116 41.4 µM | SF-268 92.7 µM | TK-10 62.5 µM | ACHN 33.1 µM | OVCAR-4 38.9 µM | SK-MEL-2 41.5 µM | K562 37.6 µM | LOX IMVI 47.9 µM | U-251 94 µM | SNB-19 > 100 µM | Malme-3M 63.2 µM | CAKI-1 29.5 µM | SF-295 58.9 µM | HOP-92 28.1 µM | MOLT-4 28.1 µM | SR 40.1 µM | CCRF-CEM 25.1 µM

c1ccc(C2=NOC3(c4ccccc4)SC4CCCCC4CN23)cc1 (stereo unspecified)
inactive: OVCAR-5 > 100 µM | HCT-116 17.8 µM | SF-268 22.8 µM | TK-10 83.9 µM | ACHN 26.2 µM | OVCAR-4 45 µM | SK-MEL-2 31.3 µM | K562 20.2 µM | LOX IMVI 17 µM | U-251 15.2 µM | SNB-19 62.4 µM | Malme-3M 29.8 µM | CAKI-1 19.5 µM | SF-295 28.1 µM | HOP-92 15.9 µM | MOLT-4 12.7 µM | SR 25 µM | CCRF-CEM 6.38 µM

O=[N+]([O-])c1ccc2nc(/C(=N\Nc3ccccc3)C(O)c3ccc4c(c3)OCO4)c(O)nc2c1 (stereo unspecified)
inactive: HCT-116 > 100 µM | SF-268 > 100 µM | TK-10 > 100 µM | ACHN 30.7 µM | OVCAR-4 > 100 µM | SK-MEL-2 > 100 µM | K562 36.4 µM | LOX IMVI > 100 µM | U-251 > 100 µM | SNB-19 > 100 µM | Malme-3M > 100 µM | SF-295 > 100 µM | HOP-92 11 µM | MOLT-4 > 100 µM | SR 91.6 µM | CCRF-CEM > 100 µM

NNC(=O)/C(NC(=O)c1ccccc1)=C(\N)c1ccc(Cl)cc1
inactive: OVCAR-5 > 100 µM | HCT-116 > 100 µM | SF-268 > 100 µM | TK-10 > 100 µM | ACHN > 100 µM | OVCAR-4 > 100 µM | SK-MEL-2 > 100 µM | K562 89.3 µM | LOX IMVI > 100 µM | U-251 > 100 µM | SNB-19 > 100 µM | Malme-3M > 100 µM | CAKI-1 > 100 µM | SF-295 > 100 µM | HOP-92 > 100 µM | MOLT-4 28.3 µM | SR 83.8 µM | CCRF-CEM 38.2 µM

COc1cc(/C=C/C(=O)c2cccc3ccccc23)cc(OC)c1OC
inactive: OVCAR-5 14.2 µM | HCT-116 3.82 µM | SF-268 4.74 µM | TK-10 14.2 µM | ACHN 12 µM | OVCAR-4 6.41 µM | SK-MEL-2 3.46 µM | K562 3.02 µM | LOX IMVI 3.03 µM | U-251 6.41 µM | SNB-19 13.4 µM | Malme-3M 11.4 µM | CAKI-1 7.5 µM | SF-295 10.1 µM | MOLT-4 3.44 µM | SR 3.13 µM | CCRF-CEM 2.56 µM

CC1=C2[C@H](c3ccccc3)C3C=CC2(c2ccccc23)N(C(=O)C(c2ccccc2)c2ccccc2)C1=O (stereo partly specified)
inactive: OVCAR-5 > 100 µM | HCT-116 > 100 µM | SF-268 > 100 µM | TK-10 > 100 µM | ACHN > 100 µM | OVCAR-4 > 100 µM | K562 > 100 µM | LOX IMVI > 100 µM | U-251 > 100 µM | SNB-19 > 100 µM | Malme-3M > 100 µM | CAKI-1 > 100 µM | SF-295 > 100 µM | HOP-92 > 100 µM | MOLT-4 > 100 µM | SR > 100 µM | CCRF-CEM > 100 µM

Cc1ccc(N2C(=O)/C(=C/c3ccc(N(CCC#N)CCC#N)cc3)N=C2COc2ccc(Cl)cc2Cl)cc1
inactive: OVCAR-5 > 100 µM | HCT-116 > 100 µM | SF-268 > 100 µM | TK-10 > 100 µM | ACHN > 100 µM | OVCAR-4 > 100 µM | SK-MEL-2 > 100 µM | K562 > 100 µM | LOX IMVI > 100 µM | U-251 > 100 µM | SNB-19 > 100 µM | Malme-3M > 100 µM | CAKI-1 > 100 µM | SF-295 > 100 µM | MOLT-4 > 100 µM | SR > 100 µM | CCRF-CEM > 100 µM

CC1CN1c1c(C(=O)/C=C/c2ccc(F)cc2)c(-c2ccccc2)nn(C)c1=O (stereo unspecified)
inactive: OVCAR-5 12.3 µM | HCT-116 13.5 µM | SF-268 16.3 µM | TK-10 17.2 µM | ACHN 16.3 µM | OVCAR-4 16.5 µM | SK-MEL-2 18.2 µM | K562 > 10 µM | LOX IMVI 13.7 µM | U-251 15.5 µM | SNB-19 16 µM | Malme-3M 16 µM | CAKI-1 > 10 µM | SF-295 16.2 µM | HOP-92 6.58 µM | MOLT-4 14.3 µM | CCRF-CEM 13.8 µM

Cc1c(C2Cc3ccccc3N2C(=O)/C=C\C(=O)O)c2ccccc2n1C (stereo unspecified)
inactive: OVCAR-5 48.4 µM | HCT-116 27.5 µM | SF-268 18.7 µM | TK-10 22 µM | ACHN 38.6 µM | OVCAR-4 30.6 µM | SK-MEL-2 17.7 µM | K562 36.4 µM | LOX IMVI 16.9 µM | U-251 20.1 µM | SNB-19 17.4 µM | Malme-3M 15.9 µM | CAKI-1 25.8 µM | SF-295 24.4 µM | HOP-92 17.7 µM | MOLT-4 27.7 µM | SR 30.1 µM | CCRF-CEM 30.8 µM

CC1=CC(=O)N2[C@H](OC[C@@H]2C(C)C)O1
inactive: HCT-116 > 100 µM | SF-268 > 100 µM | TK-10 > 100 µM | ACHN > 100 µM | OVCAR-4 > 100 µM | SK-MEL-2 > 100 µM | K562 > 100 µM | U-251 > 100 µM | SNB-19 > 100 µM | Malme-3M > 100 µM | CAKI-1 > 100 µM | SF-295 > 100 µM | HOP-92 > 100 µM | MOLT-4 > 100 µM | SR > 100 µM | CCRF-CEM > 100 µM

N#C/N=C(\N)NCCO
inactive: OVCAR-5 > 100 µM | HCT-116 > 100 µM | SF-268 > 100 µM | TK-10 > 100 µM | ACHN > 100 µM | OVCAR-4 > 100 µM | SK-MEL-2 > 100 µM | K562 > 100 µM | U-251 37.2 µM | SNB-19 > 100 µM | Malme-3M > 100 µM | CAKI-1 > 100 µM | SF-295 > 100 µM | HOP-92 > 100 µM | MOLT-4 > 100 µM | SR 30.7 µM
